# Tested on: Streptococcus mutans (ATCC 25175) biofilm
# Test: MBEC Biofilm Disruption Assay
# Assay type: cell-based
# Settings: glucosamine HCl combined with MEGA-9 in water
# Excerpt: In some embodiments, disclosed compositions can prevent, inhibit, disrupt the formation or maintenance of a biofilm in an area contacted with the composition. The area contacted can be in vivo or in vitro. In some embodiments, a composition can prevent, inhibit, disrupt the formation or maintenance of a biofilm in a mouth of a user where the composition was applied to the mouth, for example via spraying the composition into the mouth when compared to a mouth without the composition applied thereto. […] Preventing, inhibiting, disrupting, or some combination thereof the formation or maintenance of biofilms can be measured using a modified version of the MBEC assay (described in ASTM […]-12), which measures disruption of Streptococcus mutans biofilms grown on special pegs in a microtiter plate. […] The biofilm remaining on each peg following treatment is quantified by measuring the amount of fluorescently labeled bacteria that eluted from the pegs at the end of the treatment cycles (see example). […] Decreasing plaque buildup can be measured by a variety of methods in vivo including for example plaque scoring, dyeing of plaque, etc. […] Control wells for fluorescence readings were also filled with 150 microliter of phosphate-buffered saline (PBS) or non-bacteria-containing media consisting of BHI with 1% sucrose and 1 micromolar ALEXA FLUOR 488 dextran. […]
smiles,measurement,value
Cl.N[C@H]1C(O)O[C@H](CO)[C@@H](O)[C@@H]1O (stereo partly shown) [Glucosamine HCl],effect on biofilm disruption of MEGA-9 (in words),enhanced the biofilm disruption effect of MEGA-9
